Measurements from patent US12005072B2, “HIV drug combination for increasing barrier against resistance” (Merck Sharp & Dohme LLC, priority 2018, dated 2024).

What was measured:
[1] = test system: K103N mutant virus; experiment: Suppression of virus replication in vitro in 100% normal human serum; inhibitory quotient; assay type: cell-based, HIV-1; conditions: ratio of clinical trough concentration over antiviral EC50
Procedure: (§1) In addition, the susceptibility of a broader array of clinical-NNRTI-associated mutant viruses (a total of 96 viruses) to doravirine and other benchmark NNRTIs was investigated. […] See Lai, Ming-Tain, et al., In Vitro Characterization of MK-1439, a Novel HIV-1 Nonnucleoside Reverse Transcriptase Inhibitor. Antimicrobial Agents and Chemotherapy 58(3): 1652-1663, 2014.
(§2) Inhibitory quotients (IQs) were calculated by determining the ratio of the clinical trough concentration over the antiviral EC50 of various viruses. IQs have been employed to predict the potential efficacy of anti-viral agents.

[2] = test system: K103N/Y181C mutant virus; experiment: as above; assay type: cell-based, HIV-1; conditions: ratio of clinical trough concentration over antiviral EC50
Procedure: as §1, §2

[3] = test system: Y181C mutant virus; experiment: as above; assay type: cell-based, HIV-1; conditions: ratio of clinical trough concentration over antiviral EC50
Procedure: as §1, §2

[4] = test system: WT virus; experiment: Susceptibility of virus to NRTIs (antiviral potency), Example 1; assay type: cell-based, HIV-1; conditions: for EC50: Human immunodeficiency virus 1
Procedure: (§3) Common doravirine-associated mutants containing F227C substitution were derived from SDM. The experimental conditions for susceptibility evaluation are described in Lai, Ming-Tain, et al., In Vitro Characterization of MK-1439, a Novel HIV-1 Nonnucleoside Reverse Transcriptase Inhibitor. Antimicrobial Agents and Chemotherapy 58(3): 1652-1663, 2014. These mutants conferred more than 100-fold of resistance to DOR. The susceptibility of the mutants to EFdA and 3TC was also evaluated under the same conditions. […] In contrast, the mutants are hypersusceptible to EFdA with 2-5 fold increase in susceptibility with all mutants except the quardruple mutant.

[5] = test system: A98G/V106I/H221Y/F227C mutant; experiment: Susceptibility of SDM derived DOR-resistant mutant to NRTIs, Example 1; assay type: cell-based, HIV-1; conditions: for EC50: Human immunodeficiency virus 1, read-out: Antiviral Potency
Procedure: as §3

[6] = test system: F227C mutant; experiment: as above; assay type: cell-based, HIV-1; conditions: for EC50: Human immunodeficiency virus 1, read-out: Antiviral Potency
Procedure: as §3

[7] = test system: V106I/F227C mutant; experiment: as above; assay type: cell-based, HIV-1; conditions: for EC50: Human immunodeficiency virus 1, read-out: Antiviral Potency
Procedure: as §3

[8] = test system: A98G/F227C mutant; experiment: as above; assay type: cell-based, HIV-1; conditions: for EC50: Human immunodeficiency virus 1, read-out: Antiviral Potency (nM)
Excerpt: (§4) Common doravirine-associated mutants containing F227C substitution were derived from SDM.

[9] = test system: V106I/F227C/H221Y mutant; experiment: as above; assay type: cell-based, HIV-1; conditions: for EC50: Human immunodeficiency virus 1, read-out: Antiviral Potency
Excerpt: as §4

[10] = test system: V106M/F227C mutant; experiment: as above; assay type: cell-based, HIV-1; conditions: for EC50: Human immunodeficiency virus 1, read-out: Antiviral Potency
Excerpt: as §4

[11] = test system: Common doravirine-associated mutants containing F227C substitution; experiment: Susceptibility of the SDM derived doravirine-associated mutants as a group; assay type: cell-based, HIV-1
Procedure: Site-directed mutagenesis (SDMs) were generated for the substitutions V1061/F227C, V1061/H221Y/F227C, A98G/V1061/H221Y/F227C, and V106M/F227C and their susceptibility to NNRTIs was evaluated. Most of the mutants conferred a high level of resistance to DOR with a fold change (FC)>100 (FC: mutantEC50 versus WTEC50).
FIG. 1. Susceptibility of SDM derived DOR-resistant clinical mutants to NRTIs. […] In contrast, the mutants are hypersusceptible to EFdA with 2-5 fold increase in susceptibility except the quardruple mutant.
as §3

[12] = test system: HIV-1; experiment: Proof of concept study in HIV-1 infected patients; assay type: in vivo, human; conditions: single dose as low as 0.5 mg
Procedure: EFdA was tested in HIV-1 infected patients for a proof of concept study.

[13] = test system: HIV; conditions: compared with EFddA lacking a 3′-OH; cited from earlier work
[14] = test system: other prevalent NNRTI-associated mutants; experiment: Inhibitory quotients against other NNRTI-associated mutants; assay type: cell-based, HIV-1; conditions: with the exception of Y188L
Procedure: as §2

[15] = test system: wild type (WT) virus; conditions: 100% normal human serum (NHS), read-out: EC50 suppressing replication; cited from earlier work
[16] = test system: K103N mutant virus; conditions: 100% normal human serum (NHS), read-out: EC50 suppressing replication; cited from earlier work
[17] = test system: Y181C mutant virus; conditions: 100% normal human serum (NHS), read-out: EC50 suppressing replication; cited from earlier work
[18] = test system: K103N/Y181C mutant virus; conditions: 100% normal human serum (NHS), read-out: EC50 suppressing replication; cited from earlier work
[19] = test system: clinical-NNRTI-associated mutant viruses (a total of 96 viruses); conditions: 96 clinical NNRTI-associated mutant viruses; cited from earlier work
[20] = test system: HIV-1; conditions: escalating concentrations of DOR; cited from earlier work

Q: What does the source list for `Cc1cc(/C=C/C#N)cc(C)c1Nc1ccnc(Nc2ccc(C#N)cc2)n1` [RPV, rilpivirine]?
A: Inhibitory quotient (IQ) [1]: 4.6; Inhibitory quotient (IQ) [2]: 0.8; Inhibitory quotient (IQ) [3]: 1.4

Q: With `C#C[C@]1(CO)O[C@@H](n2cnc3c(N)nc(F)nc32)C[C@@H]1O` [EFdA, 4′-ethynyl-2-fluoro-2′-deoxyadenosine] as the molecule, how does the “Fold-change (EC50mut/WT EC50wt)” value [4] read?
A: 1.0

Q: What about the EC50 [4] of the same molecule?
A: 0.81 ± 0.029 nM

Q: What about the “Fold-change (EC50mut/WT EC50wt)” value [5] of the same molecule?
A: 1.00

Q: What about the EC50 [5] of the same molecule?
A: 0.81 ± 0.124 nM

Q: What about the “Fold-change (EC50mut/WT EC50wt)” value [6] of the same molecule?
A: 0.18

Q: What about the EC50 [6] of the same molecule?
A: 0.15 ± 0.026 nM

Q: What about the “Fold-change (EC50mut/WT EC50wt)” value [7] of the same molecule?
A: 0.44

Q: What about the EC50 [7] of the same molecule?
A: 0.35 ± 0.048 nM

Q: And the “Fold-change (EC50mut/WT EC50wt)” value ([8]; A98G/F227C)?
A: 0.18

Q: And the EC50 [8]?
A: 0.15 ± 0.026 nM

Q: What about the “Fold-change (EC50mut/WT EC50wt)” value [9] of the same molecule?
A: 0.49

Q: What about the EC50 [9] of the same molecule?
A: 0.4 ± 0.075 nM

Q: And the “Fold-change (EC50mut/WT EC50wt)” value [10]?
A: 0.37

Q: What about the EC50 [10] of the same molecule?
A: 0.3 ± 0.048 nM

Q: And the “susceptibility / potency of mutants compared with WT virus” value ([11]; mutants containing F227C substitution)?
A: better potency compared to WT virus

Q: And the “fold increase in susceptibility (hypersusceptible)” value ([11]; {})?
A: 2-5 fold

Q: What about the “duration of suppression of HIV replication” value [12] of the same molecule?
A: at least seven days

Q: What about the “antiviral activity relative to EFddA” value [13] of the same molecule?
A: 10,000 times

Q: What does the source list for `Cn1c(Cn2ccc(C(F)(F)F)c(Oc3cc(Cl)cc(C#N)c3)c2=O)n[nH]c1=O` [Doravirine]?
A: Inhibitory quotient (IQ) [1]: 39; Inhibitory quotient (IQ) [2]: 25; Inhibitory quotient (IQ) [3]: 27; IQ values compared with RPV and EFV [14]: higher IQ values than RPV and EFV; EC50 [15]: 12 nM; EC50 [16]: 21 nM; EC50 [17]: 31 nM; EC50 [18]: 33 nM; mutant profile versus benchmark NNRTIs [19]: superior overall to that of efavirenz (EFV) and comparable to that of etravirine (ETR) and rilpivirine (RPV); mutations emerging in resistance selection [20]: V106A mutant led two mutation pathways, followed by the emergence of F227L and L234I substitutions

Q: Which results are given for `O=C1Nc2ccc(Cl)cc2[C@@](C#CC2CC2)(C(F)(F)F)O1` [EFV, efavirenz]?
A: Inhibitory quotient (IQ) [1]: 2.5; Inhibitory quotient (IQ) [2]: 1.9; Inhibitory quotient (IQ) [3]: 60

Q: With `Nc1ccn([C@@H]2CS[C@H](CO)O2)c(=O)n1` [3TC, lamivudine, reference compound] as the molecule, how does the “Fold-change (EC50mut/WT EC50wt)” value [4] read?
A: 1.0

Q: And the EC50 [4]?
A: 601 ± 142 nM

Q: What about the “Fold-change (EC50mut/WT EC50wt)” value [5] of the same molecule?
A: 1.93

Q: What about the EC50 [5] of the same molecule?
A: 1160 ± 314 nM

Q: And the “Fold-change (EC50mut/WT EC50wt)” value [6]?
A: 2.26

Q: And the EC50 [6]?
A: 1360 ± 94 nM

Q: What about the “Fold-change (EC50mut/WT EC50wt)” value [7] of the same molecule?
A: 1.15

Q: What about the EC50 [7] of the same molecule?
A: 692 ± 212 nM

Q: What about the EC50 [8] of the same molecule?
A: 809 ± 146 nM

Q: And the EC50 [9]?
A: 758 ± 244 nM

Q: And the EC50 [10]?
A: 771 ± 62 nM
